Reference: ChEMBL document CHEMBL1135059, “Structure-activity relationships of novel anti-malarial agents. Part 3: N-(4-acylamino-3-benzoylphenyl)-4-propoxycinnamic acid amides” (Bioorg Med Chem Lett, 2002)

What was measured:
Plasmodium falciparum [1] = assay: microbe, parasite or virus in culture
Description: Antimalarial activity against Plasmodium falciparum 3D7 in erythrocytes

Plasmodium falciparum [2] = assay: microbe, parasite or virus in culture; remark: listed apart in the source
Description: Antimalarial activity against Plasmodium falciparum Dd2 in erythrocytes

Row | Compound | IC50 (Plasmodium falciparum [1]) [nM] | IC50 (Plasmodium falciparum [2]) [nM]
1 | CCCOc1ccc(/C=C/C(=O)Nc2ccc(NC(=O)Cc3ccccc3C)c(C(=O)c3ccccc3)c2)cc1 | 1400 | 2400
2 | CCCOc1ccc(/C=C/C(=O)Nc2ccc(NC(=O)/C=C/c3ccc(OCCC)cc3)c(C(=O)c3ccccc3)c2)cc1 | 20000 | 23000
3 | CCCOc1ccc(/C=C/C(=O)Nc2ccc(NC(=O)Cc3ccc(C(F)(F)F)cc3)c(C(=O)c3ccccc3)c2)cc1 | 100 | 120
4 | CCCOc1ccc(/C=C/C(=O)Nc2ccc(NC(=O)Cc3ccccc3Br)c(C(=O)c3ccccc3)c2)cc1 | 2000 | 2800
5 | CCCOc1ccc(/C=C/C(=O)Nc2ccc(NC(=O)c3cccc4ccccc34)c(C(=O)c3ccccc3)c2)cc1 | 2700 | 3400
6 | CCCOc1ccc(/C=C/C(=O)Nc2ccc(NC(=O)Cc3ccc(Br)cc3)c(C(=O)c3ccccc3)c2)cc1 | 140 | 310
7 | CCCOc1ccc(/C=C/C(=O)Nc2ccc(NC(=O)Cc3ccc(-c4ccccc4)cc3)c(C(=O)c3ccccc3)c2)cc1 | 19000 | 24000
8 | CCCOc1ccc(/C=C/C(=O)Nc2ccc(NC(=O)Cc3ccc(Cl)cc3)c(C(=O)c3ccccc3)c2)cc1 | 270 | 350
9 | CCCOc1ccc(/C=C/C(=O)Nc2ccc(NC(=O)Cc3ccc(OC)cc3)c(C(=O)c3ccccc3)c2)cc1 | 1200 | 1300
10 | CCCOc1ccc(/C=C/C(=O)Nc2ccc(NC(=O)c3ccccc3)c(C(=O)c3ccccc3)c2)cc1 | 6500 | 9000
11 | CCCOc1ccc(/C=C/C(=O)Nc2ccc(NC(=O)Cc3ccccc3)c(C(=O)c3ccccc3)c2)cc1 | 1900 | 2500
12 | CCCOc1ccc(/C=C/C(=O)Nc2ccc(NC(=O)Cc3ccc(C)cc3)c(C(=O)c3ccccc3)c2)cc1 | 250 | 340
13 | CC1(C)N=C(N)N=C(N)N1c1ccc(Cl)cc1 [CYCLOGUANIL] | 7.5 | –
14 | CCCCN(CCCC)CC(O)c1cc(Cl)cc2c1-c1ccc(Cl)cc1C2=Cc1ccc(Cl)cc1 (centres undefined) [LUMEFANTRINE] | 29 | 30
15 | CCc1nc(N)nc(N)c1-c1ccc(Cl)cc1 [PYRIMETHAMINE] | 3 | –
16 | C=C[C@H]1CN2CC[C@H]1C[C@H]2[C@H](O)c1ccnc2ccc(OC)cc12 [QUININE] | 96 | –
